# Reference: ChEMBL document CHEMBL4813953, “Kinetics-Driven Drug Design Strategy for Next-Generation Acetylcholinesterase Inhibitors to Clinical Candidate” (J Med Chem, 2021)
# Active and inactive are the calls of the source. The calls are words filed in the database; no cut-off is given here.
# Columns and labels:
# [1] = MRT (0 to infinity) in Sprague-Dawley rat at 0.5 mg/kg, iv; format: ADME, organism-based; conditions: in vivo
# [2] = Tmax in human plasma at 12 mg, po; format: ADME, cell-free
# [3] = Cmax in human plasma at 8 mg, po; format: ADME, cell-free; parameters: route oral, dose 8 mg
# [4] = biological target: Voltage-gated inwardly rectifying potassium channel KCNH2 (Homo sapiens, UniProt Q12809); experiment: Inhibition of human ERG
# Sequence of Voltage-gated inwardly rectifying potassium channel KCNH2 (Q12809 whole entry): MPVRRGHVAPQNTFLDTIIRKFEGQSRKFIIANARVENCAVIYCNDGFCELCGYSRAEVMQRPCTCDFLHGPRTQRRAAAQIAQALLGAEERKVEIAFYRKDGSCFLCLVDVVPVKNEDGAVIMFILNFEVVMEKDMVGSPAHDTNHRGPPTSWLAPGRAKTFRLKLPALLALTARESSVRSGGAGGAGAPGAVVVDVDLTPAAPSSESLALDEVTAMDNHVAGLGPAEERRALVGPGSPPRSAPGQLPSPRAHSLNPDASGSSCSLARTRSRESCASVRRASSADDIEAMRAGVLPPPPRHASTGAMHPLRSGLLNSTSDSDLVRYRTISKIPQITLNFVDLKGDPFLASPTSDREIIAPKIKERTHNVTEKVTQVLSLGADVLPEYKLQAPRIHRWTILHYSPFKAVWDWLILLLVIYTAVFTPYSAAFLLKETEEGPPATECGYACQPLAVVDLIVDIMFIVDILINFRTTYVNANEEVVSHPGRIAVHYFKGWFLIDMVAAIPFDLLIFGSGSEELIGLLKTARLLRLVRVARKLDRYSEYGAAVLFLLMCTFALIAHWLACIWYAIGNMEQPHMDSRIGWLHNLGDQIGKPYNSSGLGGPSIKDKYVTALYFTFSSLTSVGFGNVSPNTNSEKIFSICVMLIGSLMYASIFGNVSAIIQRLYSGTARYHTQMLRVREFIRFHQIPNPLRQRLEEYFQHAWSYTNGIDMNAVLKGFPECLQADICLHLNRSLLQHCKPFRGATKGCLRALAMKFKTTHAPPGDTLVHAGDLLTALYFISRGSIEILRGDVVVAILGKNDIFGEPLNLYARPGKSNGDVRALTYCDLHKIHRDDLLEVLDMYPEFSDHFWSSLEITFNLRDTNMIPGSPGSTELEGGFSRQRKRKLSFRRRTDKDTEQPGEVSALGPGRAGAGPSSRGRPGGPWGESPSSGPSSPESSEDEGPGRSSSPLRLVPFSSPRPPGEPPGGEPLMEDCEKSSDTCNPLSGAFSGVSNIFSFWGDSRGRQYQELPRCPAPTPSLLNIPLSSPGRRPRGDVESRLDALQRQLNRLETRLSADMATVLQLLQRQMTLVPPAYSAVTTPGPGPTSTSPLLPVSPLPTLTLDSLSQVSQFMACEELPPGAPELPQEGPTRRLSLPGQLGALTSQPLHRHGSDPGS
# [5] = AUC(0 to t) in Sprague-Dawley rat brain at 10 mg/kg, po; format: ADME, organism-based; parameters: dose 10 mg/kg
# [6] = MRT in Sprague-Dawley rat brain at 10 mg/kg, po; format: ADME, organism-based
# Cytochrome P450 2C19 = Cytochrome P450 2C19 (Homo sapiens, UniProt P33261); experiment: Inhibition of CYP2C19 in human hepatocytes; format: ADME, cell-based, Hepatocyte
# Sequence of Cytochrome P450 2C19 (P33261 whole entry): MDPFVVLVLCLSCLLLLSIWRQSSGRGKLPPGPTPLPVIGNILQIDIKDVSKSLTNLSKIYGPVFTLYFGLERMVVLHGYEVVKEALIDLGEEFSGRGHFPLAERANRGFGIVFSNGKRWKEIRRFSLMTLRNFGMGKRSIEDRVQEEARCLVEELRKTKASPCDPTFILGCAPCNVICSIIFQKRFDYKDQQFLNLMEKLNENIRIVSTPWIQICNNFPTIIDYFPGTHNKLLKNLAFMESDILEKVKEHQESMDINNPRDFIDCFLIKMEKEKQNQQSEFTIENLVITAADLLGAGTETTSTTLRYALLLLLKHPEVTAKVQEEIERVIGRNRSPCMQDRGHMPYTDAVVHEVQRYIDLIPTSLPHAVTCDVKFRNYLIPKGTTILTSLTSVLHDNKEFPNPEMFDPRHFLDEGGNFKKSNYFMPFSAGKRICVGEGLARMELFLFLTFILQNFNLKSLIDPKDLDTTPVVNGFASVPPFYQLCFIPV
# [7] = Genotoxicity in Salmonella typhimurium TA1535 by Ames test; format: toxicity; conditions: salmonella enterica subsp. enterica serovar typhimurium
# [8] = Protein binding in rat plasma; format: ADME, cell-free; conditions: read-out: PPB (converted)
# [9] = AUC(0 to infinity) in Sprague-Dawley rat brain at 10 mg/kg, po; format: ADME, organism-based; parameters: route oral, time infinity, dose 10 mg/kg
# [10] = Toxicity in Beagle dog assessed as effect on blood pressure at 0.1 to 1 mg/kg; format: organism-based, Canis lupus familiaris; conditions: in vivo, dose 0.1-1 mg/kg
# [11] = Terminal half life in human plasma at 1 mg, po; format: ADME, cell-free; conditions: read-out: beta t1/2 (converted)
# [12] = Volume of distribution at steady state in Sprague-Dawley rat at 0.5 mg/kg, po or iv; format: ADME, organism-based; conditions: in vivo, read-out: Vdss
# [13] = Tmax in human plasma at 4 mg, po; format: ADME, cell-free
# [14] = MRT (0 to infinity) in Beagle dog at 0.25 mg/kg, iv; format: ADME, organism-based, Canis lupus familiaris; conditions: in vivo
# Cytochrome P450 2B6 = biological target: T1, Cytochrome P450 2B6 (Homo sapiens, UniProt P20813); experiment: Inhibition of CYP2B6 in human hepatocytes; format: ADME, cell-based, Hepatocyte
# T1 sequence (P20813 whole entry): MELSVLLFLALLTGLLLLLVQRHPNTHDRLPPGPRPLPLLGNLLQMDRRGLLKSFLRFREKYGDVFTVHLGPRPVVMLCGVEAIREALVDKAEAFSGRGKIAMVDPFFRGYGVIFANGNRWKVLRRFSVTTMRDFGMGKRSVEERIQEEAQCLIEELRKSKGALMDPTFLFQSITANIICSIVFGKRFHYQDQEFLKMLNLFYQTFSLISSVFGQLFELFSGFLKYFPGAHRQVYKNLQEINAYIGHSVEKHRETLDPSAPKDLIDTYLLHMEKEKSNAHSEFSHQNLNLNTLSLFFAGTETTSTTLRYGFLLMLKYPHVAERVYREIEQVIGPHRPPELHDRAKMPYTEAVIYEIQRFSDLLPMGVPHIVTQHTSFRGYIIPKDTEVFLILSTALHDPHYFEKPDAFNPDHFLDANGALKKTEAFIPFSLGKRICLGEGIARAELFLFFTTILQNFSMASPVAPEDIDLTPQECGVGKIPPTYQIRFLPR
# [15] = Tmax in Sprague-Dawley rat plasma at 10 mg/kg, po; format: ADME, organism-based
# [16] = Clearance in Beagle dog at 0.25 mg/kg, iv; format: ADME, organism-based, Canis lupus familiaris; conditions: in vivo
# [17] = Induction of CYP3A4 expression in human hepatocytes at 10 uM; format: ADME, cell-based, Hepatocyte
# [18] = AUC (0 to infinity) in Sprague-Dawley rat at 0.5 mg/kg, po; format: ADME, organism-based; parameters: time infinity, route oral, dose 0.5 mg/kg; conditions: in vivo
# [19] = Cardiotoxicity in Beagle dog assessed as effect on QT interval at 0.1 to 1 mg/kg; format: toxicity, organism-based, Canis lupus familiaris; conditions: in vivo, dose 0.1-1 mg/kg
# Cytochrome P450 1A2 = biological target: T2, Cytochrome P450 1A2 (Homo sapiens, UniProt P05177); experiment: Inhibition of CYP1A2 in human hepatocytes; format: ADME, cell-based, Hepatocyte
# T2 sequence (P05177 whole entry): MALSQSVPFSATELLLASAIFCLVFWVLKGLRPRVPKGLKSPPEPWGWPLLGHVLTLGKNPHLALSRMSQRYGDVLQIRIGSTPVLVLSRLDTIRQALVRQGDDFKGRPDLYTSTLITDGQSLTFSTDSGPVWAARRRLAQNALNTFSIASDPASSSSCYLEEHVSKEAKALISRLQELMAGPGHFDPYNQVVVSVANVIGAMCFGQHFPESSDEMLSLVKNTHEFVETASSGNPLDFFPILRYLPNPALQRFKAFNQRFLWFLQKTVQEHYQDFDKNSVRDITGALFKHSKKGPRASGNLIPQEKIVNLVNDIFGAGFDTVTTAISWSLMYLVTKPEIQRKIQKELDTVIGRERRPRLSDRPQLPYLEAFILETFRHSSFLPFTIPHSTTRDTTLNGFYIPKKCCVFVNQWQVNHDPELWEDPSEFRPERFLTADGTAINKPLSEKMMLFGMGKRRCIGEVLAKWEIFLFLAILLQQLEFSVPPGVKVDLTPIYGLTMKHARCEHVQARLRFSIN
# [20] = Mutagenecity against CHL cells; format: ADME, cell-based, Cricetulus griseus; conditions: chinese hamster
# [21] = Volume of distribution at steady state in Beagle dog at 0.5 mg/kg, po or iv; format: ADME, organism-based, Canis lupus familiaris; conditions: in vivo, read-out: Vdss
# Rattus norvegicus = organism: Rattus norvegicus; experiment: Selectivity index, ratio of IC50 for rat serum BuChE using S-butyrylthiocholine iodide as substrate to IC50 for rat cortex homogenate acetylcholinesterase using acetylthiocholine iodide as substrate
# [22] = MRT in Sprague-Dawley rat plasma at 10 mg/kg, po; format: ADME, organism-based
# [23] = Cardiotoxicity in Beagle dog assessed as effect on QRS interval at 0.1 to 1 mg/kg; format: toxicity, organism-based, Canis lupus familiaris; conditions: in vivo, dose 0.1-1 mg/kg
# [24] = Toxicity in Beagle dog assessed as effect on body temperature at 0.1 to 1 mg/kg; format: organism-based, Canis lupus familiaris; conditions: in vivo, dose 0.1-1 mg/kg
# [25] = Clearance in Sprague-Dawley rat at 0.5 mg/kg, iv; format: ADME, organism-based; conditions: in vivo
# [26] = Cmax in human plasma at 1 mg, po; format: ADME, cell-free; parameters: route oral, dose 1 mg
# [27] = Cmax in Sprague-Dawley rat at 0.5 mg/kg, po; format: ADME, organism-based; parameters: route oral, dose 0.5 mg/kg; conditions: in vivo
# Mus musculus = experiment: Improvement in learning and spatial memory in APP/PS1 double mutant-transgenic mouse model assessed as increase in time spent in target quadrant at 0.5 to 1 mg/kg, IG QD by Morris water maze test; format: functional, organism-based; conditions: dose 0.5-1 mg/kg
# [28] = Tmax in human plasma at 8 mg, po; format: ADME, cell-free
# [29] = Half life in Sprague-Dawley rat brain at 10 mg/kg, po; format: ADME, organism-based
# [30] = AUC (0 to infinity) in Sprague-Dawley rat plasma at 10 mg/kg, po; format: ADME, organism-based; parameters: route oral, time infinity, dose 10 mg/kg
# [31] = Terminal half life in human plasma at 8 mg, po; format: ADME, cell-free; conditions: read-out: beta t1/2 (converted)
# [32] = Cardiotoxicity in Beagle dog assessed as effect on […] at 0.1 to 1 mg/kg; format: toxicity, organism-based, Canis lupus familiaris; conditions: in vivo, dose 0.1-1 mg/kg
structure (smiles),measurement,setting,value
COc1cc2c(cc1OC)C(=O)C(CC1(F)CCN(Cc3ccccc3F)CC1)C2 (configuration not stated),MRT inf,[1],5.21 h
same,Tmax,[2],1.5 h
same,Cmax,[3],16.4 ng/mL
same,IC50,[4],9.23 µM
same,AUC(0-t),[5],5840 ng·h/mL
same,MRT,[6],8.9 h
same,IC50,Cytochrome P450 2C19,> 30 µM
same,Activity,[7],Non-Toxic
same,fraction unbound,[8],0.031
same,AUC(0-inf),[9],6430 ng·h/mL
same,Activity,[10],Non-Toxic
same,half-life,[11],14.2 h
same,Vd,[12],6.52 L/kg
same,Tmax,[13],0.75 h
same,MRT inf,[14],23.6 h
same,IC50,Cytochrome P450 2B6,> 30 µM
same,Tmax,[15],0.5 h
same,clearance,[16],17.5 mL/min/kg
same,Activity,[17],Non-Toxic
same,AUC(0-inf),[18],179 ng·h/mL
same,Activity,[19],Non-Toxic
same,IC50,Cytochrome P450 1A2,> 30 µM
same,Activity,[20],Non-Toxic
same,Vd,[21],23.2 L/kg
same,Ratio IC50,Rattus norvegicus,36900
same,MRT,[22],6.81 h
same,Activity,[23],Non-Toxic
same,Activity,[24],Non-Toxic
same,clearance,[25],23.7 mL/min/kg
same,Cmax,[26],1.19 ng/mL
same,Cmax,[27],35.7 ng/mL
same,Activity,Mus musculus,Active
same,Tmax,[28],1.13 h
same,half-life,[29],6.99 h
same,AUC(0-inf),[30],1140 ng·h/mL
same,half-life,[31],27.6 h
same,Activity,[32],Non-Toxic
